According to US20260263593A1, “ALLERGY ANTIGEN AND EPITOPE THEREOF” (HOYU CO., LTD., priority 2018, published 2026):

Tested on: IgE antibody present in the serum of a shrimp-allergic patient
Assay: Epitope mapping (1): array of overlapping 15-amino-acid peptides, chemiluminescence
Type: binding, human
Details: 15-amino-acid peptide array; serum of 37 patients; difference from N2nd value of 5 non-shrimp-allergic subjects at least 35,000
Experimental: Epitope mapping was carried out using a library of overlapping peptides (length: 15 amino acids) corresponding to the amino acid sequences identified as allergy components of shrimp and the amino acid sequence of arginine kinase. Specifically, the library of overlapping peptides was prepared on the basis of the amino acid sequences of SEQ ID NOs: 117, 141, 146, 2, 45, 87, 276, 161, 230, 179, 362, 381, 399, 421, 455, 481, 486, 520, 541, 300 and 306, and arginine kinase.
The peptides to be synthesized were shifted by 10 amino acids.
For preparation of peptide arrays, the Intavis CelluSpots™ technique was used. Specifically, the peptide arrays were prepared by the following procedure: (1) synthesizing peptides of interest on amino-modified cellulose disks using an automated chemical synthesis apparatus (Intavis MultiPep RS), (2) dissolving the amino-modified cellulose disks to obtain a cellulose-bound peptide solution, and (3) spotting the cellulose-bound peptides onto coated glass slides. The details of each procedure are as described below.
Peptide synthesis was carried out in incremental steps through 9-fluorenylmethoxycarbonyl (Fmoc) chemical reaction on amino-modified cellulose disks in 384-well synthesis plates. Specifically, amino acids in which a Fmoc group is bonded to an amino group were activated in a solution of N,N′-diisopropylcarbodiimide (DIC) and 1-hydroxybenzotriazole (HOBt) in dimethylformamide (DMF) and added dropwise to the cellulose disks so that the Fmoc group-bound amino acids were bound to the amino groups on the cellulose disks (coupling). Unreacted amino groups were capped with acetic anhydride and washed with DMF. Furthermore, the Fmoc groups were eliminated from the amino groups of the amino acids bound to the amino groups on the cellulose disks by treatment with piperidine and washing with DMF. The amino acids bound to the amino groups on the cellulose disks were repetitively subjected to the coupling, the capping, and the Fmoc group elimination described above to elongate the amino terminus for peptide synthesis.
The peptides-bound cellulose disks of interest obtained above in the subsection titled “(1) Synthesis of peptide” were transferred to 96-well plates and treated with a side chain deprotection mixed solution of trifluoroacetic acid (TFA), dichloromethane, triisopropylsilane (TIPS), and water for deprotection of amino acid side chains. Then, the deprotected cellulose-bound peptides were dissolved in a mixed solution of TFA, trifluoromethanesulfonic acid (TFMSA), TIPS, and water and precipitated in tetrabutyl methyl ether (TBME), and the precipitate was resuspended in dimethyl sulfoxide (DMSO) and mixed with a mixed solution of NaCl, sodium citrate, and water to obtain a peptide solution for slide spotting.
The peptide solution for slide spotting obtained above in the subsection titled “(2) Dissolution of amino-modified cellulose disk” was spotted onto Intavis CelluSpots™ slides using Intavis Slide Spotting Robot, and the slides were dried to prepare peptide arrays.
The presence or absence of binding, to each peptide fragment, of an IgE antibody present in the serum of a shrimp-allergic patient was measured through antigen-antibody reaction using the peptide arrays. […]

Substance	Peptide bound to an IgE antibody in serum in a patient-specific manner
E16: common 15-residue IgE-binding epitope sequence of polypeptide (E16), pyruvate kinase 3-derived (NVRKAAQKYSDKIGH; VAR_SEQ 1..15 epitope) [Epitope E16]	bound to an IgE antibody in serum in a patient-specific manner
E7: common 15-residue IgE-binding epitope sequence of polypeptide (E7), myosin heavy chain type 2-derived (AKSAMDSLARDKALA; VAR_SEQ 1..15 epitope) [Epitope E7]	bound to an IgE antibody in serum in a patient-specific manner
E26: common 15-residue IgE-binding epitope sequence of polypeptide (E26), myosin heavy chain type 1-derived (PDPDPTEYLFISREQ; VAR_SEQ 1..15 epitope) [Epitope E26]	bound to an IgE antibody in serum in a patient-specific manner
E48: common 15-residue IgE-binding epitope sequence of polypeptide (E48), troponin I-derived (EEIDRKKAEVRKRLE; VAR_SEQ 1..15 epitope) [Epitope E48]	bound to an IgE antibody in serum in a patient-specific manner
E38: common 15-residue IgE-binding epitope sequence of polypeptide (E38), myosin heavy chain type 1-derived (LDKELYRCGKTKVFF; VAR_SEQ 1..15 epitope) [Epitope E38]	bound to an IgE antibody in serum in a patient-specific manner
E45: common 15-residue IgE-binding epitope sequence of polypeptide (E45), pyruvate kinase 3-derived (WHKQLFTELSQQVHL; VAR_SEQ 1..15 epitope) [Epitope E45]	bound to an IgE antibody in serum in a patient-specific manner
E42: common 15-residue IgE-binding epitope sequence of polypeptide (E42), myosin heavy chain type 1-derived (QLEDTKKMVDDESRE; VAR_SEQ 1..15 epitope) [Epitope E42]	bound to an IgE antibody in serum in a patient-specific manner
E20: common 15-residue IgE-binding epitope sequence of polypeptide (E20), mitochondrial ATP synthase subunit alpha precursor-derived (PESDAKLKQIVTDFL; VAR_SEQ 1..15 epitope) [Epitope E20]	bound to an IgE antibody in serum in a patient-specific manner
E41: common 15-residue IgE-binding epitope sequence of polypeptide (E41), myosin heavy chain type 1-derived (MTQETVADIERQHKD; VAR_SEQ 1..15 epitope) [Epitope E41]	bound to an IgE antibody in serum in a patient-specific manner
E44: common 15-residue IgE-binding epitope sequence of polypeptide (E44), hemocyanin subunit L1-derived (VRIFAWPHLDNNGIK; VAR_SEQ 1..15 epitope) [Epitope E44]	bound to an IgE antibody in serum in a patient-specific manner
E9: common 15-residue IgE-binding epitope sequence of polypeptide (E9), myosin heavy chain type 2-derived (DQLATELDASQKECR; VAR_SEQ 1..15 epitope) [Epitope E9]	bound to an IgE antibody in serum in a patient-specific manner
E28: common 15-residue IgE-binding epitope sequence of polypeptide (E28), myosin heavy chain type 1-derived (RGYHIFYQLMCDQID; VAR_SEQ 1..15 epitope) [Epitope E28]	bound to an IgE antibody in serum in a patient-specific manner
E29: common 15-residue IgE-binding epitope sequence of polypeptide (E29), myosin heavy chain type 1-derived (QRYNILAAKEMLEAK; VAR_SEQ 1..15 epitope) [Epitope E29]	bound to an IgE antibody in serum in a patient-specific manner
E15: common 15-residue IgE-binding epitope sequence of polypeptide (E15), hemocyanin subunit L1-derived (LIPKGNEQGLEFDLV; VAR_SEQ 1..15 epitope) [Epitope E15]	bound to an IgE antibody in serum in a patient-specific manner
E31: common 15-residue IgE-binding epitope sequence of polypeptide (E31), myosin heavy chain type 1-derived (ESRGRATLLGKFRNL; VAR_SEQ 1..15 epitope) [Epitope E31]	bound to an IgE antibody in serum in a patient-specific manner
E24: common 15-residue IgE-binding epitope sequence of polypeptide (E24), arginine kinase-derived (LFDPIIEDYHVGFKQ; VAR_SEQ 1..15 epitope) [Epitope E24]	bound to an IgE antibody in serum in a patient-specific manner
E25: common 15-residue IgE-binding epitope sequence of polypeptide (E25), arginine kinase-derived (VNVDPEGKFVISTRV; VAR_SEQ 1..15 epitope) [Epitope E25]	bound to an IgE antibody in serum in a patient-specific manner
E18: common 15-residue IgE-binding epitope sequence of polypeptide (E18), phosphopyruvate hydratase-derived (NKLAMQEFMILPTGA; VAR_SEQ 1..15 epitope) [Epitope E18]	bound to an IgE antibody in serum in a patient-specific manner
E17: common 15-residue IgE-binding epitope sequence of polypeptide (E17), pyruvate kinase 3-derived (PGNRIFVDDGLISLI; VAR_SEQ 1..15 epitope) [Epitope E17]	bound to an IgE antibody in serum in a patient-specific manner
E50: common 15-residue IgE-binding epitope sequence of polypeptide (E50), cyclophilin A-derived (AADNQPVGRIVMELR; VAR_SEQ 1..15 epitope) [Epitope E50]	bound to an IgE antibody in serum in a patient-specific manner
E27: common 15-residue IgE-binding epitope sequence of polypeptide (E27), myosin heavy chain type 1-derived (KLVTVKLPSGETKDF; VAR_SEQ 1..15 epitope) [Epitope E27]	bound to an IgE antibody in serum in a patient-specific manner
E46: common 15-residue IgE-binding epitope sequence of polypeptide (E46), phosphopyruvate hydratase-derived (TGVHEALEMRDGDKS; VAR_SEQ 1..15 epitope) [Epitope E46]	bound to an IgE antibody in serum in a patient-specific manner
E49: common 15-residue IgE-binding epitope sequence of polypeptide (E49), troponin I-derived (RKKKLRLLLRKKAAE; VAR_SEQ 1..15 epitope) [Epitope E49]	bound to an IgE antibody in serum in a patient-specific manner
E21: common 15-residue IgE-binding epitope sequence of polypeptide (E21), troponin I-derived (MADEEAKKKQEEIDR; VAR_SEQ 1..15 epitope) [Epitope E21]	bound to an IgE antibody in serum in a patient-specific manner
